Our source for the IC50 values is patent US10611750B2, “Tetrahydroquinoline compositions as bet bromodomain inhibitors” (FORMA Therapeutics, Inc., priority 2013, dated 2020).

For assay [1], the target named is T1, BRD4 Bromodomain 1 (BRD4 BD1) (Homo sapiens, UniProt O60885).
T1 construct: 44-168 and BRD4 BD2
The assay is described as follows: AlphaScreen binding assay, BRD4 BD1. As to conditions: His-tagged BRD4 BD1 50 nM, biotinylated H4 (1-21) K5/8/12/16 tetra-acetylated peptide 50 nM, compounds listed under IC50 range headings. An outline of the steps:
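Compound dilution series were mixed with His-tagged BRD4 bromodomain and biotinylated tetra-acetylated H4 (1-21) peptide at pH 7.3 (BD1 and peptide at 50 nM, BD2 and peptide at 100 nM). Donor and acceptor beads were then added, and plates were equilibrated at least 1 h before reading. IC50 values were fitted with a four-parameter logistic model.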
In general terms: Bead proximity is the source of the signal in Alpha formats.

The subject of assay [2] is acute myelocytic leukemia (AML) cell line MV4-11. The assay is described as follows: Oncology cell growth assay (3-day proliferation, CellTiter-Glo). It is filed as cell-based. As to conditions: Homo sapiens, MV4-11, 72 h, MV4-11 cells, 3000 cells/well, compounds listed under IC50 range headings, read-out: MV411 IC50 (gIC50, inhibition of proliferation). The method, boiled down: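 MV4-11 AML cells (RPMI 1640, 10% FBS) plated at 3000 cells/well and exposed 72 h to compound at final 10 to 0.0045 μM (3-fold series). Viability read by CellTiter-Glo luminescence; gIC50 from four-parameter logistic fit between DMSO control and no-cell background.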

Bounds are passed on as bounds.

For `COC(=O)N1c2ccc(-c3cnn(C4CCNCC4)c3)c(Oc3cccc(OC)c3)c2CC[C@@H]1C` [I-198, (S)-methyl 5-(3-methoxyphenoxy)-2-methyl-6-(1-(piperidin-4-yl)-1H-pyrazol-4-yl)-3,4-dihydroquinoline-1(2H)-carboxylate], the IC50 was 100 to 1000 nM in assay [1] and less than 500 nM in assay [2].
For `COC(=O)N1c2ccc(-c3cnn(C4CCNCC4)c3)c(Oc3ccc(OC)cc3)c2CC[C@@H]1C` [I-199, (S)-methyl 5-(4-methoxyphenoxy)-2-methyl-6-(1-(piperidin-4-yl)-1H-pyrazol-4-yl)-3,4-dihydroquinoline-1(2H)-carboxylate], the IC50 in assay [1] is 100 to 1000 nM; in assay [2], less than 500 nM.
As for `C[C@H]1CCc2c(ccc(-c3cnn(C4CCNCC4)c3)c2Oc2cccc(C#N)c2)N1C(=O)C1CC1` [I-202, (S)-3-(1-(cyclopropanecarbonyl)-2-methyl-6-(1-(piperidin-4-yl)-1H-pyrazol-4-yl)-1,2,3,4-tetrahydroquinolin-5-yloxy)benzonitrile], the results for the IC50 in assay [1] and in assay [2] were 100 to 1000 nM and less than 500 nM, respectively.
On to `CC(=O)N1c2ccc(-c3cnn(C4CCNCC4)c3)c(Oc3ccccn3)c2CC[C@@H]1C` [I-203, (S)-1-(2-methyl-6-(1-(piperidin-4-yl)-1H-pyrazol-4-yl)-5-(pyridin-2-yloxy)-3,4-dihydroquinolin-1(2H)-yl)ethanone], for which the IC50 in assay [1] was 100 to 1000 nM; in assay [2], less than 500 nM.
On to `C[C@H]1CCc2c(Oc3ccccc3)c(-c3cnn(C4CCNCC4)c3)cc(F)c2N1C(=O)C1CC1` [I-204, (S)-cyclopropyl(8-fluoro-2-methyl-5-phenoxy-6-(1-(piperidin-4-yl)-1H-pyrazol-4-yl)-3,4-dihydroquinolin-1 (2H)-yl)methanone], for which the values for the IC50 in assay [1] and in assay [2] were 100 to 1000 nM and less than 500 nM, respectively.
In the same order, the values of `COC(=O)N1c2c(F)cc(-c3cnn(C4CCNCC4)c3)c(Oc3ccccc3)c2CC[C@@H]1C` [I-205, (S)-methyl 8-fluoro-2-methyl-5-phenoxy-6-(1-(piperidin-4-yl)-1H-pyrazol-4-yl)-3,4-dihydroquinoline-1(2H)-carboxylate] are 100 to 1000 nM and less than 500 nM.
On the same counts, the results for `CC(=O)N1c2c(F)cc(-c3cnn(C4CCNCC4)c3)c(Oc3ccccc3)c2CC[C@@H]1C` [I-206, (S)-1-(8-fluoro-2-methyl-5-phenoxy-6-(1-(piperidin-4-yl)-1H-pyrazol-4-yl)-3,4-dihydroquinolin-1 (2H)-yl)ethanone] are 100 to 1000 nM and less than 500 nM.
Turning to `COc1cccc(Oc2c(-c3cnn(C4CCNCC4)c3)cc(F)c3c2CC[C@H](C)N3C(=O)C2CC2)c1` [I-207, (S)-cyclopropyl(8-fluoro-5-(3-methoxyphenoxy)-2-methyl-6-(1-(piperidin-4-yl)-1H-pyrazol-4-yl)-3,4-dihydroquinolin-1(2H)-yl)methanone], the IC50 in assay [1] was 100 to 1000 nM; in assay [2], less than 500 nM.
On the same counts, the results for `C[C@H]1CCc2c(ccc(-c3cn(C)nn3)c2Oc2ccccc2)N1C(=O)C1CC1` [I-219, (S)-cyclopropyl(2-methyl-6-(1-methyl-1H-1,2,3-triazol-4-yl)-5-phenoxy-3,4-dihydroquinolin-1(2H)-yl)methanone] are 100 to 1000 nM and less than 500 nM.
For `Cc1nnc(-c2ccc3c(c2Oc2ccccc2)CC[C@H](C)N3C(=O)C2CC2)s1` [I-220, (S)-cyclopropyl(2-methyl-6-(5-methyl-1,3,4-thiadiazol-2-yl)-5-phenoxy-3,4-dihydroquinolin-1(2H)-yl)methanone], the IC50 in assay [1] is 1000 to 10000 nM; in assay [2] it was less than 500 nM.
Take `C[C@H]1CCc2c(ccc(-c3cn(C)cn3)c2Oc2ccccc2)N1C(=O)C1CC1` [I-221, (S)-cyclopropyl(2-methyl-6-(1-methyl-1H-imidazol-4-yl)-5-phenoxy-3,4-dihydroquinolin-1(2H)-yl)methanone]: the values for the IC50 in assay [1] and in assay [2] were 100 to 1000 nM and less than 500 nM, respectively.
For the molecule `COC(=O)N1c2ccc(-c3cnn(C4CCCS(=O)(=O)C4)c3)c(Oc3ccc(F)cc3)c2CC[C@@H]1C` (stereo partly drawn) [I-222, Methyl (2S)-6-(1-(1,1-dioxidotetrahydro-2H-thiopyran-3-yl)-1H-pyrazol-4-yl)-5-(4-fluorophenoxy)-2-methyl-3,4-dihydroquinoline-1 (2H)-carboxylate], the figures for the IC50 in assay [1] and in assay [2] were 100 to 1000 nM and less than 500 nM, respectively.
As to `COC(=O)N1c2ccc(-c3cnn(C4CS(=O)(=O)C4)c3)c(Oc3ccc(F)cc3)c2CC[C@@H]1C` [I-223, methyl (S)-6-(1-(1,1-dioxidothietan-3-yl)-1H-pyrazol-4-yl)-5-(4-fluorophenoxy)-2-methyl-3,4-dihydroquinoline-1(2H)-carboxylate], the results for the IC50 in assay [1] and in assay [2] were 100 to 1000 nM and less than 500 nM, respectively.
`C[C@H]1CCc2c(ccc(-c3cnn(C4CS(=O)(=O)C4)c3)c2Oc2ccc(F)cc2)N1C(=O)C1CC1` [I-229, 3-[4-[(2S)-1-cyclopropanecarbonyl-5-(4-fluorophenoxy)-2-methyl-1,2,3,4-tetrahydroquinolin-6-yl]-1H-pyrazol-1-yl]-1λ^6-thietane-1,1-dione]: the IC50 in assay [1] is 100 to 1000 nM; in assay [2] it was less than 500 nM.
In the case of `C[C@H]1CCc2c(ccc(-c3cnn(C4CS(=O)(=O)C4)c3)c2Oc2ccccc2)N1C(=O)C1CC1` [I-230, 3-[4-[(2S)-1-cyclopropanecarbonyl-2-methyl-5-phenoxy-1,2,3,4-tetrahydroquinolin-6-yl]-1H-pyrazol-1-yl]-1λ^6-thietane-1,1-dione], the IC50 in assay [1] is 100 to 1000 nM; in assay [2] it was less than 500 nM.
With `C[C@H]1CCc2c(ccc(-c3cnoc3)c2Oc2ccccc2)N1C(=O)C1CC1` [I-231, (S)-cyclopropyl(6-(isoxazol-4-yl)-2-methyl-5-phenoxy-3,4-dihydroquinolin-1 (2H)-yl)methanone], the IC50 in assay [1] was 1000 to 10000 nM; in assay [2], less than 500 nM.
With `COC(=O)N1c2ccc(-c3cn(C)nn3)c(Oc3ccccc3)c2CC[C@@H]1C` [I-232, (S)-methyl 2-methyl-6-(1-methyl-1H-1,2,3-triazol-4-yl)-5-phenoxy-3,4-dihydroquinoline-1(2H)-carboxylate], the IC50 is 100 to 1000 nM in assay [1] and less than 500 nM in assay [2].
For the molecule `CC(=O)N1c2ccc(-c3cn(C)nn3)c(Oc3ccccc3)c2CC[C@@H]1C` [I-233, (S)-1-(2-methyl-6-(1-methyl-1H-1,2,3-triazol-4-yl)-5-phenoxy-3,4-dihydroquinolin-1(2H)-yl)ethanone], the IC50 is 100 to 1000 nM in assay [1] and less than 500 nM in assay [2].
With `COc1cccc(Oc2c(-c3cn(C)nn3)ccc3c2CC[C@H](C)N3C(=O)C2CC2)c1` [I-234, (S)-cyclopropyl(5-(3-methoxyphenoxy)-2-methyl-6-(1-methyl-1H-1,2,3-triazol-4-yl)-3,4-dihydroquinolin-1 (2H)-yl)methanone], the IC50 in assay [1] is 1000 to 10000 nM; in assay [2], less than 500 nM.
For `C[C@H]1CCc2c(ccc(-c3cn(C)nn3)c2Oc2cccc(F)c2)N1C(=O)C1CC1` [I-235, (S)-cyclopropyl(5-(3-fluorophenoxy)-2-methyl-6-(1-methyl-1H-1,2,3-triazol-4-yl)-3,4-dihydroquinolin-1 (2H)-yl)methanone], the IC50 was 1000 to 10000 nM in assay [1] and less than 500 nM in assay [2].
